Measurements from ChEMBL document CHEMBL5584224, “Recent advances in c-Met-based dual inhibitors in the treatment of cancers” (Eur J Med Chem, 2024).

Columns and labels:
[1] = target: Fibroblast growth factor receptor 1 (Homo sapiens, UniProt P11362); experiment: Inhibition of FGFR1 (unknown origin)
[2] = target: Fibroblast growth factor receptor 2 (Homo sapiens, UniProt P21802); experiment: Inhibition of FGFR2 (unknown origin)
[3] = target: Fibroblast growth factor receptor 3 (Homo sapiens, UniProt P22607); experiment: Inhibition of FGFR3 (unknown origin)
HepG2 [4] = experiment: Antitumor activity against human HepG2 cells xenografted in mouse model assessed as tumor growth inhibition at 16 mg/kg/day for 7 days relative to control; format: functional; set-up: scale not given: the % may be the effect or the level left; settings: time 7 day
HepG2 [5] = experiment: Antiproliferative activity against human HepG2 cells assessed as reduction in cell viability incubated for 72 hrs by MTT assay; format: functional, cell-based; settings: HepG2, 72 h
HepG2 [6] = experiment: Antitumor activity against human HepG2 cells xenografted in mouse model assessed as tumor growth inhibition at 48 mg/kg/day for 7 days relative to control; format: functional; set-up: scale not given: the % may be the effect or the level left; settings: time 7 day

Chain of Fibroblast growth factor receptor 2 (P21802 whole entry): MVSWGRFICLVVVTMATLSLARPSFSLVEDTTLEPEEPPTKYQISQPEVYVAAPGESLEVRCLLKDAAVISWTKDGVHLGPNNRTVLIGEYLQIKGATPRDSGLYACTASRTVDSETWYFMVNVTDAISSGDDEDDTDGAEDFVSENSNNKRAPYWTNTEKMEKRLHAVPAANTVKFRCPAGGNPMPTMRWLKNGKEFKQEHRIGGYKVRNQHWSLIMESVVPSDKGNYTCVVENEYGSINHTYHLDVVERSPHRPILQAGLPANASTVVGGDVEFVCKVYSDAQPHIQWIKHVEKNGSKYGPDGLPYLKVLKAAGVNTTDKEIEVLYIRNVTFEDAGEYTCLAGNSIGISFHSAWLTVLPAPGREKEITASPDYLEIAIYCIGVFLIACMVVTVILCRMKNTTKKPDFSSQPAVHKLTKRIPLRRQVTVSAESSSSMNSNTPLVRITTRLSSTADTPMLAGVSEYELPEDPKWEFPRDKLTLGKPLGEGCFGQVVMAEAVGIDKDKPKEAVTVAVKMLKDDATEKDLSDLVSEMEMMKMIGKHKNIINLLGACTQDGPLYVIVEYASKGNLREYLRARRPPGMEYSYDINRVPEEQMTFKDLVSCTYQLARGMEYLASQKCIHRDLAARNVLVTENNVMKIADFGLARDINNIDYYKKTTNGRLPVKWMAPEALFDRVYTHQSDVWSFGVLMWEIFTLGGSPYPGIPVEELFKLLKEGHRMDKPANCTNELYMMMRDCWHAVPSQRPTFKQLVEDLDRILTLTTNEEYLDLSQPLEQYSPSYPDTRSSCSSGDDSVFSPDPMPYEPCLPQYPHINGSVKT
Chain of Fibroblast growth factor receptor 1 (P11362 whole entry): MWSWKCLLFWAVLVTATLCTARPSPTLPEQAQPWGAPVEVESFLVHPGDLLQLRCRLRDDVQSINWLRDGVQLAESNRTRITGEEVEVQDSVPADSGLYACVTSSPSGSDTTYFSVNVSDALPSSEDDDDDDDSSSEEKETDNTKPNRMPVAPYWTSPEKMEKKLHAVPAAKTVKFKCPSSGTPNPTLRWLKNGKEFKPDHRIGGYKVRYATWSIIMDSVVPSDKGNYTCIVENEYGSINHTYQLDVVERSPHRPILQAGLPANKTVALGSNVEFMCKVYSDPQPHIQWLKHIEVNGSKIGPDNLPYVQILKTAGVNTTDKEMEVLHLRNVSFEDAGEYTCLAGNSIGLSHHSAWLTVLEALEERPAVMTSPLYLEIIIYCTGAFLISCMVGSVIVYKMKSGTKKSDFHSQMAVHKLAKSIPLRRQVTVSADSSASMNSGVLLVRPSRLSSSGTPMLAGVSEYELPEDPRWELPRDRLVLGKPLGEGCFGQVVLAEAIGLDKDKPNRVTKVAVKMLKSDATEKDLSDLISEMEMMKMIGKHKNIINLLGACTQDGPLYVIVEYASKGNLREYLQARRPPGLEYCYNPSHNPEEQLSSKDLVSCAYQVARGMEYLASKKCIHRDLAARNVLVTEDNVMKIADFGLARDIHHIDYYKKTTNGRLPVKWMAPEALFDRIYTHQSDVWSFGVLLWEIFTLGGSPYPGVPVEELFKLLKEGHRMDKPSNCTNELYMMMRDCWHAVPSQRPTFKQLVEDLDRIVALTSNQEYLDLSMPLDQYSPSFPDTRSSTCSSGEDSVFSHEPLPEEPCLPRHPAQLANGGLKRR
Chain of Fibroblast growth factor receptor 3 (P22607 whole entry): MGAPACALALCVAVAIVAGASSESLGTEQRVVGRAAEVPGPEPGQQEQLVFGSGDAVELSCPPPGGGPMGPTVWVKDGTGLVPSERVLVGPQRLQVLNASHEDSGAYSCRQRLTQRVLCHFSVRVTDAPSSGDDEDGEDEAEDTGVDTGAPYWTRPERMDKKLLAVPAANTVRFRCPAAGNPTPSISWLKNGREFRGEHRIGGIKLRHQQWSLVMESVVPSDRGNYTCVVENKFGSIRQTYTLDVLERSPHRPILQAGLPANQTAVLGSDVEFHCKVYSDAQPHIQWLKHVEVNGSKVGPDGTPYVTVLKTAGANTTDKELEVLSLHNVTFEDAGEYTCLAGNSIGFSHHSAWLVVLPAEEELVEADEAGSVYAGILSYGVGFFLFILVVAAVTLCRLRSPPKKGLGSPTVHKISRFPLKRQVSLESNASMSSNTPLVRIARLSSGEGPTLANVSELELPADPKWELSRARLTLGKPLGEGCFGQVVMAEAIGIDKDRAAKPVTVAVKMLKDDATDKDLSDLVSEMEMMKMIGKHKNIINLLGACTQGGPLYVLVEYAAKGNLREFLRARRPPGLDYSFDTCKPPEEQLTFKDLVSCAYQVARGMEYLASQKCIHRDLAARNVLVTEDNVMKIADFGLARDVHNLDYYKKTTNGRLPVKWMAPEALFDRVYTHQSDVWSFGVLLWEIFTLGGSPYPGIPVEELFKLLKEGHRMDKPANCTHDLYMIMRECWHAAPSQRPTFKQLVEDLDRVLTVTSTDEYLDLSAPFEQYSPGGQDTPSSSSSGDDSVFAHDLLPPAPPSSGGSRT

| IC50 [1] [nM] | IC50 [2] [nM] | IC50 [3] [nM] | IC50 (HepG2 [5]) [nM] | SMILES | Activity (HepG2 [4]) [%] | Activity (HepG2 [6]) [%] |
| --- | --- | --- | --- | --- | --- | --- |
| 18 | 17 | 15 | – | O=C1Nc2ccc(CN3C(=O)CSC3=O)cc2/C1=C/c1cc(CN2CCOCC2)c[nH]1 | – | – |
| – | – | – | 1460 | Cc1ccccc1NS(=O)(=O)c1ccc2c(c1)/C(=C/c1nc3ccccc3[nH]1)C(=O)N2.Cl | 65.2 | 65.2 |
